Measurements published in US20230257396A1, “MACROCYCLES AND THEIR USE” (BLOSSOMHILL THERAPEUTICS, INC., priority 2020, published 2023).

Assays:
Test in all cases: KINOMEscan kinase binding assay (Eurofins/DiscoveRx), % Ctrl
Conditions in all cases: 1 μM
[1] = target: T1, kinases (Homo sapiens, UniProt P00533, T790M)
T1 construct: purchased Eurofins/DiscoveRx; host or cells: E. coli BL21-derived host (T7 phage display) for most kinases; HEK-293 for the rest
How it was run: (§1)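 Competition binding, 1 h RT: phage-tagged or HEK-293-expressed DNA-tagged kinase + immobilized ligand + compound. Eluate kinase by qPCR. % Ctrl = (test − positive ctrl)/(negative ctrl − positive ctrl) × 100; lower means stronger binding.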

[2] = target: T2, kinases (Homo sapiens, UniProt P07949, M918T)
T2 construct: purchased Eurofins/DiscoveRx; host or cells: E. coli BL21-derived host (T7 phage display) for most kinases; HEK-293 for the rest
T2 sequence (P07949 29-1114 M918T): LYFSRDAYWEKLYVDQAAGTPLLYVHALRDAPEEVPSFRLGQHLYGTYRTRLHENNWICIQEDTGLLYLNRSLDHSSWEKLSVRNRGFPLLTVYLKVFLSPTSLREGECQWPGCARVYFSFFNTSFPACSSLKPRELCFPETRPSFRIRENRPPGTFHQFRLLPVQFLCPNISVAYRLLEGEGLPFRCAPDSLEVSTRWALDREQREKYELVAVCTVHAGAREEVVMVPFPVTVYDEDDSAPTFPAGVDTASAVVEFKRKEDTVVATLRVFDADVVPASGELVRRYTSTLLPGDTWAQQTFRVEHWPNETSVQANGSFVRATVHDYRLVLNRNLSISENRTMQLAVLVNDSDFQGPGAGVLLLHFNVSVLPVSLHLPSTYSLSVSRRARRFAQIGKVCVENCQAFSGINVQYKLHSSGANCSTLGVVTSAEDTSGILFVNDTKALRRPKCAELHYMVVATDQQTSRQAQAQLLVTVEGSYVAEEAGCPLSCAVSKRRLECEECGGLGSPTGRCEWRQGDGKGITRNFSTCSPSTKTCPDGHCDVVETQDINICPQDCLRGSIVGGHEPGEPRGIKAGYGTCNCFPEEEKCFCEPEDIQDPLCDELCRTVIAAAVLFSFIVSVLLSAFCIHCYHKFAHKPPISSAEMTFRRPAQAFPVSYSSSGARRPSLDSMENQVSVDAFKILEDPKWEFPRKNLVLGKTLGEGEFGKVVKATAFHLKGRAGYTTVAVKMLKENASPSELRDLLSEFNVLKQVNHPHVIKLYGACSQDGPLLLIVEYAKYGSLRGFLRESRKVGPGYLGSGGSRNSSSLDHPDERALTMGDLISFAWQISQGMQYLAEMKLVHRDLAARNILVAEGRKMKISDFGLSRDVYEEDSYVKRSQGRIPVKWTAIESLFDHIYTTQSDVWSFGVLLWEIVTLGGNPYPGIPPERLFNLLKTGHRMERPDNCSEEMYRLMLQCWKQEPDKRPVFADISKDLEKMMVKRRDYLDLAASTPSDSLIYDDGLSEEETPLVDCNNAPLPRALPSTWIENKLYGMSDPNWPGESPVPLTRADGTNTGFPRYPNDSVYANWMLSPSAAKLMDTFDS
How it was run: as §1

[3] = target: T3, kinases (Homo sapiens, UniProt P00533, L861Q)
T3 construct: purchased Eurofins/DiscoveRx; host or cells: E. coli BL21-derived host (T7 phage display) for most kinases; HEK-293 for the rest
How it was run: as §1

[4] = target: T4, kinases (Homo sapiens, UniProt P00533, DEL752-759)
T4 construct: purchased Eurofins/DiscoveRx; host or cells: E. coli BL21-derived host (T7 phage display) for most kinases; HEK-293 for the rest
How it was run: as §1

[5] = target: T5, kinases (Homo sapiens, UniProt P00519, H396P)
T5 construct: purchased Eurofins/DiscoveRx; host or cells: E. coli BL21-derived host (T7 phage display) for most kinases; HEK-293 for the rest
How it was run: as §1

[6] = target: T6, kinases (Homo sapiens, UniProt P42684)
T6 construct: purchased Eurofins/DiscoveRx; host or cells: E. coli BL21-derived host (T7 phage display) for most kinases; HEK-293 for the rest
How it was run: as §1

[7] = target: T7, kinases (Homo sapiens, UniProt P00519, M351T)
T7 construct: purchased Eurofins/DiscoveRx; host or cells: E. coli BL21-derived host (T7 phage display) for most kinases; HEK-293 for the rest
How it was run: as §1

[8] = target: T8, kinases (Homo sapiens, UniProt P09619)
T8 construct: purchased Eurofins/DiscoveRx; host or cells: E. coli BL21-derived host (T7 phage display) for most kinases; HEK-293 for the rest
T8 sequence (P09619 33-1106): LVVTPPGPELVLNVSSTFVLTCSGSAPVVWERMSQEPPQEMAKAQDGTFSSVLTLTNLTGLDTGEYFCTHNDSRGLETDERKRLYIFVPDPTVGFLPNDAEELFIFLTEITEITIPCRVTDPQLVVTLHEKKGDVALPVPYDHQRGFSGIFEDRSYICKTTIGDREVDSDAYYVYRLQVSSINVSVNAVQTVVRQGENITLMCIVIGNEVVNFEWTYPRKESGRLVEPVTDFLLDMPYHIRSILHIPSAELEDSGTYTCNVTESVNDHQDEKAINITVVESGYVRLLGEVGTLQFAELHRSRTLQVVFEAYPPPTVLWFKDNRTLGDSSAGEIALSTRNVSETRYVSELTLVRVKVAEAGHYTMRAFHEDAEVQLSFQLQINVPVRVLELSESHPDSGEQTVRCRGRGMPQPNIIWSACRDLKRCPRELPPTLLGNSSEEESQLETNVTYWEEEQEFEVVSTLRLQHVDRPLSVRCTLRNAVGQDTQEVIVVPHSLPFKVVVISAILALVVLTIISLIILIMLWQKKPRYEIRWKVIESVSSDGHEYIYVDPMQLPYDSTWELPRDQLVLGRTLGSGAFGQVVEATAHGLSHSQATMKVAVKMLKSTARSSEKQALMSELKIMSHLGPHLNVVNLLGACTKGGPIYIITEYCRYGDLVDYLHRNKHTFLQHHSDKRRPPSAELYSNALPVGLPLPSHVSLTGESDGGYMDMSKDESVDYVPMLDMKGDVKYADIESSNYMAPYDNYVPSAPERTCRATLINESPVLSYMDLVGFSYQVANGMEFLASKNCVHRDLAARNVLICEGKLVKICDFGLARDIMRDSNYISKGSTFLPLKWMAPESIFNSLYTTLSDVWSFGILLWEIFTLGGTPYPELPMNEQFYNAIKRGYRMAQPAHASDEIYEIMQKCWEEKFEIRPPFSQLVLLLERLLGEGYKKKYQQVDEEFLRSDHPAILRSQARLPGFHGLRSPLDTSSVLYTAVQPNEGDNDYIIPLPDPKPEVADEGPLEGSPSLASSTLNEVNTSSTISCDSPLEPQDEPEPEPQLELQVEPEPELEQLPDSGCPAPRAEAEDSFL
How it was run: as §1

[9] = target: T9, kinases (Homo sapiens, UniProt P10721, V559D)
T9 construct: purchased Eurofins/DiscoveRx; host or cells: E. coli BL21-derived host (T7 phage display) for most kinases; HEK-293 for the rest
T9 sequence (P10721 26-976 V559D): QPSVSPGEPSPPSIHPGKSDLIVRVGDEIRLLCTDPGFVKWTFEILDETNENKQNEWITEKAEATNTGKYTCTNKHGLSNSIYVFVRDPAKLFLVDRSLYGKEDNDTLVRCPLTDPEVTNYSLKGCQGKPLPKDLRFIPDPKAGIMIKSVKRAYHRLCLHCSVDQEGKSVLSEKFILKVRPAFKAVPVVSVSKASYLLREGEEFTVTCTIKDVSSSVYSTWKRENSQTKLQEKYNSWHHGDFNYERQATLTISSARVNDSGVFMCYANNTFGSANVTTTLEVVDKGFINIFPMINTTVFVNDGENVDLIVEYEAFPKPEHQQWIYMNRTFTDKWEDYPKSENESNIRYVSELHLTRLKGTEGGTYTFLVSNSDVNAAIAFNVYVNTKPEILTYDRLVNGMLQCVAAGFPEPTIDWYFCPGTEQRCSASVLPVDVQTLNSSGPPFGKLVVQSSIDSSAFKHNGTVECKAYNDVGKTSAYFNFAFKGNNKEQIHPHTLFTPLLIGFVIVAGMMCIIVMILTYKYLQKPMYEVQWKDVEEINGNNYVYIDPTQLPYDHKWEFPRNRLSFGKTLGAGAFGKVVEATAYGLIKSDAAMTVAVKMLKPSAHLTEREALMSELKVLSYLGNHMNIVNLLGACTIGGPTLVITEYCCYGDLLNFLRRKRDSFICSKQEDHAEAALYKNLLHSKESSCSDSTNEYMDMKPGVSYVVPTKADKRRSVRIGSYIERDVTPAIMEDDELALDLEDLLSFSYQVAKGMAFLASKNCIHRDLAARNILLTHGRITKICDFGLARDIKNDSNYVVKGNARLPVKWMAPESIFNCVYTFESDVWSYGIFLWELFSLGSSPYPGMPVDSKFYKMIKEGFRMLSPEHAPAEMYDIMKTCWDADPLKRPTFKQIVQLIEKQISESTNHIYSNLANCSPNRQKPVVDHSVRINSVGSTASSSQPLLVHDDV
How it was run: as §1

[10] = target: T10, kinases (Homo sapiens, UniProt P07949, V804L)
T10 construct: purchased Eurofins/DiscoveRx; host or cells: E. coli BL21-derived host (T7 phage display) for most kinases; HEK-293 for the rest
T10 sequence (P07949 29-1114 V804L): as the sequence (P07949 29-1114 M918T) above, with V776L, T890M counted along it
How it was run: as §1

[11] = target: T11, kinases (Homo sapiens, UniProt P35916)
T11 construct: purchased Eurofins/DiscoveRx; host or cells: E. coli BL21-derived host (T7 phage display) for most kinases; HEK-293 for the rest
T11 sequence (P35916 25-1363): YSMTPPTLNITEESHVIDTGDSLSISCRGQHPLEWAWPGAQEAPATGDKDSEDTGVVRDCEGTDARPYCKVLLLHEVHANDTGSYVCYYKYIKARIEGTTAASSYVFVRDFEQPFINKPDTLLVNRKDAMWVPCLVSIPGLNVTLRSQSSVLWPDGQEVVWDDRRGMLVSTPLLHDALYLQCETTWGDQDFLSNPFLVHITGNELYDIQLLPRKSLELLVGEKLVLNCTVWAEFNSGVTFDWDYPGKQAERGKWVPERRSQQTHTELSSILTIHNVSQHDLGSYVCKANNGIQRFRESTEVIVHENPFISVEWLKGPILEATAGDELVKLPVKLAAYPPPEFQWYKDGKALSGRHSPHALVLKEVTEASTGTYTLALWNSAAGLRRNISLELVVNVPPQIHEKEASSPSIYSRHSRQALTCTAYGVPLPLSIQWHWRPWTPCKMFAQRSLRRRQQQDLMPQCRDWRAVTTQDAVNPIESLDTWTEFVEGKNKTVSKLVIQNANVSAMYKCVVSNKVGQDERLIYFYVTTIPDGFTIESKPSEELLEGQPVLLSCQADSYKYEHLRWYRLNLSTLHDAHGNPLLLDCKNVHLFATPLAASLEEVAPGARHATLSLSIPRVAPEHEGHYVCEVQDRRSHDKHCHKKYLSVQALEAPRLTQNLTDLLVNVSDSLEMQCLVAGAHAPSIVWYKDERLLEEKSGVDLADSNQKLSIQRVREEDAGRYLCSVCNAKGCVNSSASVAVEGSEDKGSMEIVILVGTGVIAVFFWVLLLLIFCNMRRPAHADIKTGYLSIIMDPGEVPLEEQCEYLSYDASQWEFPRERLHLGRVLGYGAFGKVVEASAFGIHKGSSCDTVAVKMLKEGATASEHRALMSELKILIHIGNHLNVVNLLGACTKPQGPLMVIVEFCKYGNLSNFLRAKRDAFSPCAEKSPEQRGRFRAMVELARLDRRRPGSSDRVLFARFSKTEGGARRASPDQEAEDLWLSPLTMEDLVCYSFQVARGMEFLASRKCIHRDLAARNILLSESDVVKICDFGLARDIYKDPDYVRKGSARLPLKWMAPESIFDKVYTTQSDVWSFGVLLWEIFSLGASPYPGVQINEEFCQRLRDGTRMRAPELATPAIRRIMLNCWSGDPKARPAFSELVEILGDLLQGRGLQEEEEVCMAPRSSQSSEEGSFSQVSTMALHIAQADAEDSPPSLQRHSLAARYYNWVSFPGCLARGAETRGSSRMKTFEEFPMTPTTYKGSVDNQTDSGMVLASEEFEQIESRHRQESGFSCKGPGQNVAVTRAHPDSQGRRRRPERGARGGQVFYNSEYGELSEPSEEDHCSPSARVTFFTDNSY
How it was run: as §1

[12] = target: T12, kinases (Homo sapiens, UniProt P36888)
T12 construct: purchased Eurofins/DiscoveRx; host or cells: E. coli BL21-derived host (T7 phage display) for most kinases; HEK-293 for the rest
T12 sequence (P36888 27-993): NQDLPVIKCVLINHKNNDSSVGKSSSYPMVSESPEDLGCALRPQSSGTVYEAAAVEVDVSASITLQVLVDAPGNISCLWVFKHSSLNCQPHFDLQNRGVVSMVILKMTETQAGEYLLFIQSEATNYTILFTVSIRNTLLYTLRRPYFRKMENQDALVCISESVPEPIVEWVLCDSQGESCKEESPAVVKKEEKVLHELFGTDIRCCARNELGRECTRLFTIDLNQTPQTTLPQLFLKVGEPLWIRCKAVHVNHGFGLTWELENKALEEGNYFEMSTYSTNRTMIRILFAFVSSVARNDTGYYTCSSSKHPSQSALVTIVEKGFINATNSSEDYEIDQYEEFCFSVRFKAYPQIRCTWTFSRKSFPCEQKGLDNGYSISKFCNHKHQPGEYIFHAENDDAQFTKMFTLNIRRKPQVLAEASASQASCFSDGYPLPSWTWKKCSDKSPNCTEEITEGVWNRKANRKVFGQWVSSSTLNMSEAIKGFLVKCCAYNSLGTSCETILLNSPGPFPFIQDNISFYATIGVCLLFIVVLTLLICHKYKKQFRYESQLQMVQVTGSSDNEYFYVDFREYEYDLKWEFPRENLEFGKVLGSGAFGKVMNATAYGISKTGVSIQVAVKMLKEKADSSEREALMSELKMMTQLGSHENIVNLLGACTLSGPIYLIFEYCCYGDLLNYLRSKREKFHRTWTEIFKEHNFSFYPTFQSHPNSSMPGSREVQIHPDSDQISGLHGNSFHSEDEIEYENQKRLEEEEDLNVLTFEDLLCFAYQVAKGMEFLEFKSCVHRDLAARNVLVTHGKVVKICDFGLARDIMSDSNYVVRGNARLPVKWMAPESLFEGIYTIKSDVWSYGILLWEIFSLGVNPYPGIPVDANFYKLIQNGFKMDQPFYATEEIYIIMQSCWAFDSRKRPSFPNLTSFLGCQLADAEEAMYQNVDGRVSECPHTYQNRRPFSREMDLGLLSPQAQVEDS
How it was run: as §1

[13] = target: T13, kinases (Homo sapiens, UniProt P10721, D816H)
T13 construct: purchased Eurofins/DiscoveRx; host or cells: E. coli BL21-derived host (T7 phage display) for most kinases; HEK-293 for the rest
T13 sequence (P10721 26-976 D816H): as the sequence (P10721 26-976 V559D) above, with D534V, D791H counted along it
How it was run: as §1

[14] = target: T14, kinases (Homo sapiens, UniProt P07949, V804M)
T14 construct: purchased Eurofins/DiscoveRx; host or cells: E. coli BL21-derived host (T7 phage display) for most kinases; HEK-293 for the rest
T14 sequence (P07949 29-1114 V804M): as the sequence (P07949 29-1114 M918T) above, with V776M, T890M counted along it
How it was run: as §1

[15] = target: T15, kinases (Homo sapiens, UniProt P10721)
T15 construct: purchased Eurofins/DiscoveRx; host or cells: E. coli BL21-derived host (T7 phage display) for most kinases; HEK-293 for the rest
T15 sequence (P10721 26-976): as the sequence (P10721 26-976 V559D) above, with D534V counted along it
How it was run: as §1

Row | % Ctrl, EGFR(T790M) ([1]; EGFR(T790M)) [% Ctrl] | % Ctrl, RET(M918T) ([2]; RET(M918T)) [% Ctrl] | % Ctrl, EGFR(L861Q) ([3]; EGFR(L861Q)) [% Ctrl] | % Ctrl, EGFR(S752-I759del) ([4]; EGFR(S752-I759del)) [% Ctrl] | % Ctrl, ABL1(H396P)-nonphosphorylated ([5]; ABL1(H396P)-nonphosphorylated) [% Ctrl] | % Ctrl, ABL1(H396P)-phosphorylated ([5]; ABL1(H396P)-phosphorylated) [% Ctrl] | % Ctrl, ABL2 ([6]; ABL2) [% Ctrl] | % Ctrl, ABL1(M351T)-phosphorylated ([7]; ABL1(M351T)-phosphorylated) [% Ctrl] | % Ctrl, PDGFRB ([8]; PDGFRB) [% Ctrl] | % Ctrl, KIT(V559D) ([9]; KIT(V559D)) [% Ctrl] | % Ctrl, RET(V804L) ([10]; RET(V804L)) [% Ctrl] | % Ctrl, FLT4 ([11]; FLT4) [% Ctrl] | % Ctrl, FLT3 ([12]; FLT3) [% Ctrl] | % Ctrl, FLT3-autoinhibited ([12]; FLT3-autoinhibited) [% Ctrl] | % Ctrl, KIT(D816H) ([13]; KIT(D816H)) [% Ctrl] | % Ctrl, RET(V804M) ([14]; RET(V804M)) [% Ctrl] | % Ctrl, KIT ([15]; KIT) [% Ctrl] | % Ctrl, KIT-autoinhibited ([15]; KIT-autoinhibited) [% Ctrl] | SMILES | further results
1 | 96 | 25 | 95 | 95 | 11 | 22 | 77 | 17 | 38 | 36 | 50 | 100 | 36 | 97 | 48 | 64 | 49 | 83 | Cc1cc2c([nH]1)/C=C1\C(=O)Nc3cc(Cl)c(cc31)OCCO[C@@H](C(=O)N[C@@H]1CCNC1)CN(C)C2=O [Ex. 136, [7R,16a(17)Z]-19-chloro-2,5-dimethyl-4,16-dioxo-N-[(3R)-pyrrolidin-3-yl]-4,5,6,7,9,10,15,16-octahydro-1H-12,14-(ethanediylidene)dipyrrolo[3,2-i:3′,4′-l][1,4,7]dioxazacyclopentadecine-7-carboxamide] | –
2 | – | – | – | – | – | – | – | – | – | – | – | – | – | – | – | – | – | – | Cc1cc2c([nH]1)/C=C1\C(=O)Nc3cnc(cc31)-c1cnn(C)c1CN(C)CCN(C)C2=O [Ex. 172, [3a(4)Z]-6,9,12,14-tetramethyl-9,10,11,12,13,14-hexahydro-17,1-(azenometheno)pyrazolo[4,3-m]dipyrrolo[3,2-f:3′,4′-i][1,4]diazacyclopentadecine-3,8(2H,5H)-dione] | % Ctrl, EGFR(T790M) ([1]; target EGFR(T790M)): 22 % Ctrl; % Ctrl, RET(M918T) ([2]; target RET(M918T)): 0.8 % Ctrl; % Ctrl, EGFR(L861Q) ([3]; target EGFR(L861Q)): 75 % Ctrl; % Ctrl, EGFR(S752-I759del) ([4]; target EGFR(S752-I759del)): 37 % Ctrl; % Ctrl, ABL1(H396P)-nonphosphorylated ([5]; target ABL1(H396P)-nonphosphorylated): 0 % Ctrl; % Ctrl, ABL1(H396P)-phosphorylated ([5]; target ABL1(H396P)-phosphorylated): 0.1 % Ctrl; % Ctrl, ABL2 ([6]; target ABL2): 4.2 % Ctrl; % Ctrl, ABL1(M351T)-phosphorylated ([7]; target ABL1(M351T)-phosphorylated): 0.4 % Ctrl; % Ctrl, PDGFRB ([8]; target PDGFRB): 1.9 % Ctrl; % Ctrl, KIT(V559D) ([9]; target KIT(V559D)): 42 % Ctrl; % Ctrl, RET(V804L) ([10]; target RET(V804L)): 0.5 % Ctrl; % Ctrl, FLT4 ([11]; target FLT4): 1.7 % Ctrl; % Ctrl, FLT3 ([12]; target FLT3): 8.5 % Ctrl; % Ctrl, FLT3-autoinhibited ([12]; target FLT3-autoinhibited): 90 % Ctrl; % Ctrl, KIT(D816H) ([13]; target KIT(D816H)): 6.4 % Ctrl; % Ctrl, RET(V804M) ([14]; target RET(V804M)): 0.8 % Ctrl; % Ctrl, KIT ([15]; target KIT): 68 % Ctrl; % Ctrl, KIT-autoinhibited ([15]; target KIT-autoinhibited): 100 % Ctrl
3 | 68 | 76 | 64 | 54 | 62 | 61 | 100 | 98 | 88 | 97 | 71 | 74 | 45 | 95 | 7 | 51 | 99 | 100 | Cc1cc2c([nH]1)/C=C1\C(=O)Nc3ccc(cc31)CN(C)C(=O)COCCNC2=O [Ex.111, [17a(18)Z]-2,11-dimethyl-6,7,11,12-tetrahydro-1H-13,15-(ethanediylidene)dipyrrolo[3,2-f:3′,4′-i][1,4,14]oxadiazacyclohexadecine-4,10,17(5H,9H,16H)-trione] | –
